# Measurements taken from patent US20220381657A1, “METHOD FOR PREPARING BIOLOGICAL MATERIAL HAVING EXCELLENT LIGHT-TRANSMITTING PROPERTY” (RIKEN, priority 2016, published 2022).
# Read-outs that look alike come from different tables or passages of the source.
# Legend:
# [1] = system: fixed brain tissue suspension; assay: 1st delipidation assay: solubilization of fixed brain tissue suspension, turbidity at 600 nm; set-up: species or system mice
# Method: Specifically, brains taken out of mice were sheared with a utility knife and then were disrupted by ultrasonication. To each of the resultant suspensions, an equal volume of 8% PFA solution was added to perform fixation at 4° C. for 1 hour. The resultant mixture was centrifuged to remove the supernatant, and the fixed brain tissue was washed with PBS for 3 times. PBS was added so as to obtain 2 mL of a fixed brain tissue suspension per brain. The fixed brain tissue suspension was diluted by 3.5 folds. To 20 μL of the resultant suspension, 130 μL of each 10 wt % chemical was added and was shaken at 37° C. overnight. Thus obtained mixed solutions were subjected to absorbance (turbidity) measurement at 600 nm. It is expected that a chemical solution which reduces the turbidity of a fixed brain suspension allows reducing light scattering by solubilizing lipids, which act as a scattering factor, in the brain tissue.
# [2] = system: bovine coagulated blood; assay: Decoloring screening: heme eluted from bovine coagulated blood (OD420-OD700); settings: decolorization; for 700 nm calibrated 420 nm Average: OD420 calibrated by OD700; for integrated value 500-700 nm Average: integrated absorbance 500-700 nm
# Method: A high-throughput screening system for evaluating the decoloring ability of various compounds was constructed. The screening system involved adding an aqueous solution of each compound to bovine coagulated blood and then measuring the absorbance of heme collected in the supernatant.
# Specifically, to bovine blood, an equal amount of 8% PFA solution was added, and reacted at 4° C. overnight. The mixed liquid was centrifuged at 1500×g for 5 minutes, and the supernatant containing PFA was discarded. Then, the same amount of PBS as the original volume of blood was added to prepare a coagulated blood sample. To 150 μL of 10 wt % aqueous solution of each compound, 50 μL of the coagulated blood sample was added, and reacted at 37° C. overnight. The reaction solution was centrifuged at 1500×g for 5 minutes, and then 100 μL of the supernatant was added to a plate so as to be subjected to absorbance measurement. A sample which is suspended in water instead of being dissolved in the water has a weak decoloring effect, but none the less has a high absorbance value. […]
# [3] = system: Serius
# [4] = for OD400: Table 1; for 400 nm: OD at 400 nm of the chemical
# [5] = Table 1, 10 wt % chemical, fixed mouse brain suspension, 37° C. overnight, PBS = 1.000
Molecule,OD400 [4],pH (Table 1),400 nm [4],pH ([…]),1st delipidation assay Relative OD600 [1],700 nm calibrated 420 nm Average [2],integrated value 500-700 nm Average [2],Fluorescence quench Average [3],"1st delipidation assay Relative OD600 [1, 5]",Fluorescence quench Average ([3]; relative fluorescence)
"C[C@H](CCC(=O)O)[C@H]1CC[C@H]2[C@@H]3[C@H](O)C[C@@H]4C[C@H](O)CC[C@]4(C)[C@H]3C[C@H](O)[C@]12C [#0566, Sodium Cholate]",–,–,–,–,0.254,–,–,–,–,–
Dodecene-1 LAS [#0672],–,–,–,–,0.152,1.45,1.41,1.08,–,–
Triton ™ X-100 [reference compound],–,–,–,–,–,–,–,–,0.240,–
"CC(C)CCN [#1038, Isoamylamine]",0.055,9.6,–,–,–,–,–,–,0.247,–
"C1CCNCC1 [#1097, Piperidine]",–,–,–,–,–,–,–,–,0.166,–
Isobutylamine [#1043],–,–,–,–,–,–,–,–,0.251,–
Nonidet P-40 [#1511],–,–,–,–,0.193,–,–,–,–,–
Tween ® 80 [#1460],0.065,5.7,–,–,–,–,–,–,0.095,–
"CCCCCCCCCCCCOS(=O)(=O)[O-].[Li+] [#1310, Lithium dodecyl sulfate]",–,–,–,–,–,–,–,–,0.155,–
"N.O=C(O)C(F)(F)C(F)(F)C(F)(F)C(F)(F)C(F)(F)C(F)(F)C(F)(F)F [#1162, Ammonium pentadecafluorooctanoate]",–,–,–,–,–,–,–,–,0.318,–
"CCCCCCCCCCCCOS(=O)(=O)[O-].[Na+] [#1035, Sodium dodecyl sulfate]",0.048,6.3,0.048,6.3,–,1.28,1.32,–,–,1.15
Polyethylene glycol mono-4-octylphenyl ether [#1103],–,–,–,–,0.184,–,–,–,–,–
"CC(=O)O.CCCCCCCCCCCCN [#0627, Dodecylamine acetate]",0.053,10.3,0.053,10.3,–,2.21,1.74,–,–,1.05
"c1cnc(N2CCNCC2)nc1 [#1167, 1-(2-Pyrimidyl) piperazine]",–,–,0.084,12.5,–,1.39,1.09,–,–,0.01
"NCCCCCCO [#0007, 6-Amino-1-hexanol]",–,–,0.093,11.9,–,2.66,1.76,–,–,0.22
"CCCCCCCCCCS(=O)(=O)[O-].[Na+] [#0625, Sodium 1-decanesulfonate]",0.046,5.9,–,–,–,–,–,–,0.325,–
"OCC(O)c1ccccc1 (stereo not shown) [#1074, 1-Phenylethane-1,2-diol]",0.05,9.5,–,–,–,–,–,–,0.336,–
Isopropylamine [#1006],–,–,–,–,–,–,–,–,0.318,–
"CN1C2CCC1CC(O)C2 (stereo not shown) [#1462, Tropine]",–,–,–,–,–,–,–,–,0.292,–
CCC(N)CCN (stereo not shown) [#0678],–,–,0.049,13.6,–,1.71,1.15,–,–,0.60
"CCCCCCCCCCCC[N+](C)(C)C.[Cl-] [#1021, Dodecyltrimethyl- ammonium chloride]",–,–,–,–,–,1.96,1.70,1.11,0.194,–
"CC(O)CN(CCN(CC(C)O)CC(C)O)CC(C)O (stereo not shown) [Quadrol ®, reference compound]",0.048,12.4,–,–,–,–,–,–,0.569,–
"CCCCCCCCCS(=O)(=O)[O-].[Na+] [#0870, Sodium 1-nonanesulfonate]",0.047,6.8,–,–,–,–,–,–,0.247,–

# More lines, main results first:
OD400 [4],pH (Table 1),400 nm [4],pH ([…]),Molecule,1st delipidation assay Relative OD600 [1],700 nm calibrated 420 nm Average [2],integrated value 500-700 nm Average [2],Fluorescence quench Average [3],"1st delipidation assay Relative OD600 [1, 5]",Fluorescence quench Average ([3]; relative fluorescence)
–,–,0.05,14.1,"OCCCC1CCN(CCO)CC1 [#1226, 1-(2-Hydroxyethyl)-4-(3-hydroxypropyl) piperidine]",–,2.20,2.29,–,–,0.76
–,–,0.053,13.1,"NCCCNCCNCCCN [#0277, N,N′-Bis(3-aminopropyl) ethylenediamine]",–,1.20,0.83,–,–,0.71
–,–,0.06,12.3,NCCCCO [#0006],–,1.22,0.82,–,–,0.64
0.056,5.9,–,–,"CCCCCCCCCCCS(=O)(=O)[O-].[Na+] [#1419, Sodium 1-undecanesulfonate]",–,–,–,–,0.124,–
0.08,12.9,0.08,12.9,"CC(CN)CCCN (stereo not shown) [#1267, 2-Methyl-1,5-diaminopentane]",–,1.48,1.09,–,–,0.51
–,–,0.055,8.4,CCCCCCCCCCCC[N+](C)(C)CCCS(=O)(=O)[O-] [#0694],–,2.24,2.53,–,–,1.09
–,–,0.052,12.5,NCCCCCO [#0003],–,1.83,1.21,–,–,0.63
–,–,0.051,8.6,c1cnccn1 [#1086],–,1.41,1.39,–,–,0.67
0.047,7.0,–,–,"CCCCCCCCCC(=O)N(C)CC(=O)[O-].[Na+] [#0703, N-Decanoylsarcosine sodium salt]",–,–,–,–,0.223,–
–,–,0.05,14.0,NCCCCN [#0783],–,2.21,1.42,–,–,0.60
0.054,7.9,0.054,7.9,"C[C@H](CCC(=O)[O-])[C@H]1CC[C@H]2[C@@H]3CC[C@@H]4C[C@H](O)CC[C@]4(C)[C@H]3C[C@H](O)[C@]12C.[Na+] [#1507, Sodium deoxycholate]",–,1.27,1.03,–,–,1.03
0.05,12.7,–,–,"CCCCNCCN [#0422, N-Butylethylenediamine]",–,–,–,–,0.307,–
–,–,0.05,6.1,"COc1ccc(CO)cc1OC [#1422, Veratryl alcohol]",–,1.46,1.28,–,–,0.89
0.085,10.5,–,–,"CN1CCCC1 [#1295, 1-Methylpyrrolidine]",–,–,–,–,0.325,–
–,–,0.055,2.9,OCCCCCBr [#1367],–,1.48,0.06,–,–,−0.01
–,–,0.067,13.2,"NCCCOCCCN [#0394, Bis(3-aminopropyl) ether]",–,3.27,1.85,–,–,0.54
–,–,0.057,13.2,"CC(O)CN(CCN(CC(C)O)CC(C)O)CCN(CC(C)O)CC(C)O (stereo not shown) [#1105, N,N,N′,N″,N″-Pentakis(2-hydroxypropyl) diethylene-triamine]",–,1.20,1.05,–,–,0.74
0.052,12.7,–,–,"CC(C)(C)N(CCO)CCO [#0390, N-tert- Butyldiethanolamine]",–,–,–,–,0.318,–
–,–,0.052,10.4,"NC(=O)c1cccnc1 [#0855, nicotinamide]",–,2.63,2.45,–,–,0.75
